The nature of this series: Mouse urine: fluorescence of extracted urine after injection. It is filed as in vivo. The settings on record: mice, urine extracted with acetonitrile:methanol mix, imaged on Odyssey CLx imager. From the text:
The urine is extracted with an acetonitrile:methanol mix and imaged on an Odyssey CLx imager (LI-COR Biosciences).

As to `CC1(C)C(/C=C/C=C/C=C/C=C2\N(CCCCS(=O)(=O)O)c3ccc4ccccc4c3C2(C)C)=[N+](CCCCS(=O)(=O)[O-])c2ccc3ccccc3c21` [ICG, indocyanine green], the “fluorescent signal in urine” value was “No fluorescent signal”.
